Laboratory results: patent US20230271964A1, “5-AMINO-8-(4-PYRIDYL)-[1,2,4]TRIAZOLO[4,3-C]PYRIMIDIN-3-ONE COMPOUNDS FOR USE AGAINST CANCER” (ASTRAZENECA AB, priority 2020, published 2023)

Experiments:
[1] = biological target: human adenosine A2A receptor (Homo sapiens (Human), UniProt P29274); assay: Adenosine receptor inhibition binding assay, [3H]ZM241385, HEK293 A2A receptor membranes; conditions: 1 nM [3H]ZM241385, HEK293-hA2A membranes, 25° C., 1 h, Ki from IC50 by Cheng-Prusoff; for Ki: read-out: A2A pKi (converted)
human adenosine A2A receptor, sequence (P29274 whole entry): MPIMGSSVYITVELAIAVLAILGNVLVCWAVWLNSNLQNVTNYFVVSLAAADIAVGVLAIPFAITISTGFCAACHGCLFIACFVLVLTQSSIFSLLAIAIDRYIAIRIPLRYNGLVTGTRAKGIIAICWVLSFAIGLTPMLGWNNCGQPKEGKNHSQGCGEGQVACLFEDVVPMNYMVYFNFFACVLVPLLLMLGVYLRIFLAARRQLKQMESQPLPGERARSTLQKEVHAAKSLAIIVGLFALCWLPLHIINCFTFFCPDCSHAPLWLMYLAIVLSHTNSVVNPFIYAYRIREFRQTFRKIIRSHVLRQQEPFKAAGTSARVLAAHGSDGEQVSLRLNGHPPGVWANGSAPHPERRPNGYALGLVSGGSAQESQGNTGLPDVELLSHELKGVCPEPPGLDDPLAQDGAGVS
How it was run: (§1)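 Membranes from BacMam-transduced HEK293 cells (0.2 µg A2A; 1.4 µg A1) incubated 1 h at 25 °C with 1 nM radioligand; A2A in 50 mM Tris-HCl pH 7.4, A1 buffer adds 100 mM NaCl, 10 mM MgCl2. Nonspecific binding: 1 µM CGS 15943 (A2A) or 1 µM DPCPX (A1). Filtration, scintillation counting; IC50 converted to Ki via Cheng-Prusoff.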

[2] = biological target: human adenosine A1 receptor (Homo sapiens (Human), UniProt P30542); assay: Adenosine receptor inhibition binding assay, [3H]DPCPX, A1 receptor membranes; conditions: 1 nM [3H]DPCPX, 25° C., 1 h, Ki from IC50 by Cheng-Prusoff; for Ki: read-out: A1 pKi (converted)
human adenosine A1 receptor, sequence (P30542 whole entry): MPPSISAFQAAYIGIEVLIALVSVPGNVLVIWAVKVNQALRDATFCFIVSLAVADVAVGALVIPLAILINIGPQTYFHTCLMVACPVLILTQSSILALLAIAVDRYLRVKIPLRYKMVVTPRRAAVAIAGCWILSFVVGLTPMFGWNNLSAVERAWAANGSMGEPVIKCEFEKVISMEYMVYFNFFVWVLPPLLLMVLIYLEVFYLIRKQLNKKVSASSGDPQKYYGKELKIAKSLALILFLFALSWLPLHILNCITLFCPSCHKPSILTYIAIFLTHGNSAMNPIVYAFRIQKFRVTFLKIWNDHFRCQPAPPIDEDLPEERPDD
How it was run: as §1

[3] = biological target: human CB1 receptor (Homo sapiens (Human), UniProt P21554); assay: CB1 receptor antagonism, agonist-induced cAMP modulation (HTRF) in transfected CHO cells; format: cell-based; conditions: read-out: Antag IC50
human CB1 receptor, sequence (P21554 whole entry): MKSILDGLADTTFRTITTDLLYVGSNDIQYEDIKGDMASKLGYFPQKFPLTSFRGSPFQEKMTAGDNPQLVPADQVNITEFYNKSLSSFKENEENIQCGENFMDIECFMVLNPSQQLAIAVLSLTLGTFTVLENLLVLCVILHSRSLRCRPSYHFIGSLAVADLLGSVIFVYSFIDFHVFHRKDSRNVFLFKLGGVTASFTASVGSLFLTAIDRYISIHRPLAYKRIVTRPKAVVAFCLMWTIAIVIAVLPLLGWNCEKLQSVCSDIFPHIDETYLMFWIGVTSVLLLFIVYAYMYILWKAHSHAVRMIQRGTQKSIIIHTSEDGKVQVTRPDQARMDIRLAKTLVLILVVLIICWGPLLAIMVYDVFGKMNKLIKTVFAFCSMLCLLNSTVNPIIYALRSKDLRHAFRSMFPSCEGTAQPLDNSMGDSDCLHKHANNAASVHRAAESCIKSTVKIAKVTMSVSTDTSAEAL
Protocol: Receptor antagonism: Evaluation of the antagonist activity of compounds at the human CB1 receptor expressed in transfected CHO cells, determined by measuring their effects on agonist-induced cAMP modulation using the HTRF detection method.
Thereafter, the reference agonist CP 55940 and the adenylyl cyclase activator NKH 477 are added at respective final concentrations of 3 nM and 3 µM.
For basal control measurements, CP 55940 is omitted from the wells containing 3 µM AM 281.
Following 20 min incubation at 37° C., the cells are lysed and the fluorescence acceptor (D2-labeled cAMP) and fluorescence donor (anti-cAMP antibody labeled with europium cryptate) are added.
After 60 min at room temperature, the fluorescence transfer is measured at λex=337 nm and λem=620 and 665 nm using a microplate reader (Rubystar, BMG). The cAMP concentration is determined by dividing the signal measured at 665 nm by that measured at 620 nm (ratio).
The standard reference antagonist is AM 281, which is tested in each experiment at several concentrations to generate a concentration-response curve from which its IC50 value is calculated.

| Compound | A2A pKi [1] | A1 pKi [2] | IC50 [3] | Ki [1] | Ki [2] |
| --- | --- | --- | --- | --- | --- |
| Cc1cc(-c2c(-c3ccccc3)nc(N)n3c(=O)n(CCc4nnnn4C)nc23)cc(C)n1 [Example 1-5, 5-amino-8-(2,6-dimethyl-4-pyridyl)-2-[2-(1-methyltetrazol-5-yl)ethyl]-7-phenyl-[1,2,4]triazolo[4,3-c]pyrimidin-3-one] | 7.2 | <5.4 | > 100 µM |  |  |
| Cc1cc(-c2c(-c3ccccc3)nc(N)n3c(=O)n(Cc4ccn(C)n4)nc23)cc(C)n1 [Example 1-16, 5-amino-8-(2,6-dimethyl-4-pyridyl)-2-[(1-methylpyrazol-3-yl)methyl]-7-phenyl-[1,2,4]triazolo[4,3-c]pyrimidin-3-one] | 9.4 | 7.2 | > 100 µM |  |  |
| Cc1nc(Cn2nc3c(-c4cc(C)[n+]([O-])c(C)c4)c(-c4ccc(F)cc4)nc(N)n3c2=O)c(C)o1 [Example 1-35, 5-amino-2-[(2,5-dimethyloxazol-4-yl)methyl]-8-(2,6-dimethyl-1-oxido-pyridin-1-ium-4-yl)-7-(4-fluorophenyl)-[1,2,4]triazolo[4,3-c]pyrimidin-3-one] | 8.4 | 7.4 | > 100 µM |  |  |
| Cc1cc(-c2c(-c3ccccc3)nc(N)n3c(=O)n(Cc4nccn4C)nc23)cc(C)[n+]1[O-] [Example 1-36, 5-amino-8-(2,6-dimethyl-1-oxido-pyridin-1-ium-4-yl)-2-[(1-methylimidazol-2-yl)methyl]-7-phenyl-[1,2,4]triazolo[4,3-c]pyrimidin-3-one] | 8.0 | 7.3 | > 100 µM |  |  |
| Cc1ocnc1Cn1nc2c(-c3cc(C)[n+]([O-])c(C)c3)c(-c3ccc(F)cc3)nc(N)n2c1=O [Example 1-37, 5-amino-8-(2,6-dimethyl-1-oxido-pyridin-1-ium-4-yl)-7-(4-fluorophenyl)-2-[(5-methyloxazol-4-yl)methyl]-[1,2,4]triazolo[4,3-c]pyrimidin-3-one] | 8.8 | 6.8 | > 100 µM |  |  |
| COc1cc(-c2c(-c3ccccc3)nc(N)n3c(=O)n(Cc4nccn4C)nc23)cc(C)n1 [Example 1-38, 5-amino-8-(2-methoxy-6-methyl-4-pyridyl)-2-[(1-methylimidazol-2-yl)methyl]-7-phenyl-[1,2,4]triazolo[4,3-c]pyrimidin-3-one] | 9.5 | 7.8 | > 100 µM |  |  |
| Cc1cc(-c2c(-c3ccccc3)nc(N)n3c(=O)n(Cc4nonc4C)nc23)cc(CO)n1 [Example 1-46, 5-amino-8-[2-(hydroxymethyl)-6-methyl-4-pyridyl]-2-[(4-methyl-1,2,5-oxadiazol-3-yl)methyl]-7-phenyl-[1,2,4]triazolo[4,3-c]pyrimidin-3-one] | 9.3 | 6.4 | > 100 µM |  |  |
| Cc1cc(-c2c(-c3ccc(F)cc3)nc(N)n3c(=O)n(Cc4ccn(C)n4)nc23)cc(CO)n1 [Example 1-52, 5-amino-7-(4-fluorophenyl)-8-[2-(hydroxymethyl)-6-methyl-4-pyridyl]-2-[(1-methylpyrazol-3-yl)methyl]-[1,2,4]triazolo[4,3-c]pyrimidin-3-one] | 8.6 | 6.7 | > 100 µM |  |  |
| Cc1cc(-c2c(-c3ccc(F)cc3)nc(N)n3c(=O)n(Cc4nc(C)oc4C)nc23)cc(CO)n1 [Example 1-53, 5-amino-2-[(2,5-dimethyloxazol-4-yl)methyl]-7-(4-fluorophenyl)-8-[2-(hydroxymethyl)-6-methyl-4-pyridyl]-[1,2,4]triazolo[4,3-c]pyrimidin-3-one] | 9.2 | 6.5 | > 100 µM |  |  |
| Cn1ccnc1Cn1nc2c(-c3cc(Cl)nc(CO)c3)c(-c3ccccc3)nc(N)n2c1=O [Example 1-55, 5-amino-8-[2-chloro-6-(hydroxymethyl)-4-pyridyl]-2-[(1-methylimidazol-2-yl)methyl]-7-phenyl-[1,2,4]triazolo[4,3-c]pyrimidin-3-one] | 9.4 | 7.5 | > 100 µM |  |  |
| Cn1ccnc1Cn1nc2c(-c3cc(Cl)nc(CO)c3)c(-c3ccc(F)cc3)nc(N)n2c1=O [Example 1-58, 5-amino-8-[2-chloro-6-(hydroxymethyl)-4-pyridyl]-7-(4-fluorophenyl)-2-[(1-methylimidazol-2-yl)methyl]-[1,2,4]triazolo[4,3-c]pyrimidin-3-one] | 9.5 | 7.1 | > 100 µM |  |  |
| COc1cc(-c2c(-c3ccccc3)nc(N)n3c(=O)n(Cc4nccn4C)nc23)cc(CO)n1 [Example 1-61, 5-amino-8-[2-(hydroxymethyl)-6-methoxy-4-pyridyl]-2-[(1-methylimidazol-2-yl)methyl]-7-phenyl-[1,2,4]triazolo[4,3-c]pyrimidin-3-one] | 9.5 | 6.8 | > 100 µM |  |  |
| Cc1ocnc1Cn1nc2c(-c3cc(CO)nc(C(F)(F)F)c3)c(-c3ccccc3)nc(N)n2c1=O [Example 1-66, 5-amino-8-[2-(hydroxymethyl)-6-(trifluoromethyl)-4-pyridyl]-2-[(5-methyloxazol-4-yl)methyl]-7-phenyl-[1,2,4]triazolo[4,3-c]pyrimidin-3-one] | 9.7 | 7.5 | > 100 µM |  |  |
| Cn1ccnc1Cn1nc2c(-c3cc(CO)nc(C(F)(F)F)c3)c(-c3ccccc3)nc(N)n2c1=O [Example 1-67, 5-amino-8-[2-(hydroxymethyl)-6-(trifluoromethyl)-4-pyridyl]-2-[(1-methylimidazol-2-yl)methyl]-7-phenyl-[1,2,4]triazolo[4,3-c]pyrimidin-3-one] | 10.0 | 8.0 | > 100 µM |  |  |
| [2H]c1c([2H])c([2H])c(-c2nc(N)n3c(=O)n(C[C@H]4CCCO4)nc3c2-c2cc(Cl)nc(CO)c2)c([2H])c1[2H] [Example 2-33, 5-amino-8-[2-chloro-6-(hydroxymethyl)-4-pyridyl]-7-(2,3,4,5,6-pentadeuteriophenyl)-2-[[(2R)-tetrahydrofuran-2-yl]methyl]-[1,2,4]triazolo[4,3-c]pyrimidin-3-one] |  |  |  | 0.000316 µM | 0.158 µM |
| Nc1nc(-c2ccc(F)cc2)c(-c2cc(Cl)nc(CO)c2)c2nn(C[C@H]3CCCO3)c(=O)n12 [Example 2-34, 5-amino-8-[2-chloro-6-(hydroxymethyl)-4-pyridyl]-7-(4-fluorophenyl)-2-[[(2R)-tetrahydrofuran-2-yl]methyl]-[1,2,4]triazolo[4,3-c]pyrimidin-3-one] | 9.4 | 6.3 |  |  |  |
| [2H]c1c([2H])c([2H])c(-c2nc(N)n3c(=O)n(C[C@H]4CCCO4)nc3c2-c2cc(CO)nc(OC)c2)c([2H])c1[2H] [Example 2-36, 5-amino-8-[2-(hydroxymethyl)-6-methoxy-4-pyridyl]-7-(2,3,4,5,6-pentadeuteriophenyl)-2-[[(2R)-tetrahydrofuran-2-yl]methyl]-[1,2,4]triazolo[4,3-c]pyrimidin-3-one] |  |  |  | 0.000794 µM | 1.26 µM |
| COc1cc(-c2c(-c3ccc(F)cc3)nc(N)n3c(=O)n(C[C@H]4CCCO4)nc23)cc(CO)n1 [Example 2-37, 5-amino-7-(4-fluorophenyl)-8-[2-(hydroxymethyl)-6-methoxy-4-pyridyl]-2-[[(2R)-tetrahydrofuran-2-yl]methyl]-[1,2,4]triazolo[4,3-c]pyrimidin-3-one] | 9.0 | 5.5 |  |  |  |
| Cc1cc(-c2c(-c3ccccc3)nc(N)n3c(=O)n(CCNC4CCN(C(=O)c5cccnc5)C4)nc23)cc(C)n1 (centres unmarked) [Example 3-2, 5-amino-8-(2,6-dimethyl-4-pyridyl)-7-phenyl-2-[2-[[1-(pyridine-3-carbonyl)pyrrolidin-3-yl]amino]ethyl]-[1,2,4]triazolo[4,3-c]pyrimidin-3-one] | 6.9 | 5.6 |  |  |  |
| Cc1cc(-c2c(-c3ccccc3)nc(N)n3c(=O)n(CCN(C)c4cn[nH]c4)nc23)cc(C)n1 [Example 3-3, 5-amino-8-(2,6-dimethyl-4-pyridyl)-2-[2-[methyl(1H-pyrazol-4-yl)amino]ethyl]-7-phenyl-[1,2,4]triazolo[4,3-c]pyrimidin-3-one] | 7.2 | 5.7 |  |  |  |
| Cc1cc(-c2c(N3CCCCC3)nc(N)n3c(=O)n(Cc4ncoc4C)nc23)cc(C)n1 [Example 4-1, 5-amino-8-(2,6-dimethyl-4-pyridyl)-2-[(5-methyloxazol-4-yl)methyl]-7-(1-piperidyl)-[1,2,4]triazolo[4,3-c]pyrimidin-3-one] | 8.9 | <6.0 |  |  |  |
